The values that follow come from article PMC12035931, “Biologically active withanolides from Physalis peruviana” (Pharmaceutical Biology, 2025).

The test system of series [1] is TNF-α-induced NF-κB activity. The series is described as follows: Inhibition of TNF-α-activated NF-κB, luciferase reporter assay in HEK293 cells. To be noted: HEK293; for IC50: TNF-α-induced NF-κB luciferase, read-out: NF-κB assay IC50; for inhibition at 50 µM: % inhibition at a concentration of 50 μM, TNF-α 2 ng/mL, 6 h, read-out: NF-κB assay % inhib. The class given is cell-based, human. The source says:
To study the inhibition of tumor necrosis factor-alpha (TNF-α)-induced activation of nuclear factor-kappa B (NF-κB), human embryonic kidney 293 cells (HEK293) stably transfected with an NF-κB-responsive luciferase reporter construct (Cat. No. RC0014, Panomics, Fremont, CA, USA) were utilized, following previously described protocols (Kondratyuk et al. [2012]). This cell line incorporates a chromosomally integrated luciferase reporter, which produces luciferase enzyme upon NF-κB activation. The enzyme reacts with its substrate to produce a luminescent signal, detectable via luminometry. Cells were seeded at a density of 2 × 10^4 cells/mL in 96-well plates and cultured in Dulbecco’s Modified Eagle Medium (DMEM, Cat. No. D6429, Sigma-Aldrich, Saint Louis, MO, USA) supplemented with 10% fetal bovine serum (FBS, Cat. No. A5670701, Gibco™, Thermo Fisher Scientific, Waltham, MA, USA). The medium also contained 100 µg/mL streptomycin sulfate and 100 IU/mL penicillin G (Cat. No.15140 Gibco BRL, Grand Island, NY, USA). The cells were then treated with varying concentrations of the test sample and stimulated with recombinant human TNF-α (2 ng/mL, Cat. No. HZ-1014, Proteintech Group, Inc. Rosemont, IL, USA).
Following a 6-hour incubation, the cells were rinsed with phosphate buffer saline (PBS), lysed with 40 μL of 1X Reporter Lysis Buffer (Cat. No. E2661, Promega, Madison, WI, USA), and subjected to a freeze-thaw cycle (−80 °C/37 °C). Luminescence, generated by the luciferase reaction, was quantified using the Luc assay system (Cat. No. N1610, Promega, Madison, WI, USA) and a LUMIstar Galaxy luminometer (BMG, Offenburg, Germany).
Background: In a reporter assay the amount or activity of a reporter protein is the signal.

For series [2], the system named is NO production in LPS-activated murine macrophage RAW 264.7 cells. The series is described as follows: cells. The class given is cell-based, mouse. To be noted: Mus musculus; for inhibition at 50 µM: RAW264.7, 20 h, read-out: Nitrite assay % inhib. Here is the method: The inhibition of nitric oxide (NO) production in lipopolysaccharide (LPS)-stimulated murine macrophage RAW 264.7 cells was evaluated following previously described methods (Min et al. [2009]). RAW 264.7 cell line was purchased from ATCC (Cat. No. TIB-71, Manassas, VA, USA) and cultured in Dulbecco’s modified Eagle’s medium (DMEM, Cat. No. 12800-082, Invitrogen, Massachusetts, USA) supplemented with 10% heat-inactivated fetal bovine serum (FBS, Cat. No. 26140, Gibco BRL Co, Grand Island, NY, USA), 100× penicillin G and streptomycin (Cat. No.11074440001, Sigma-Aldrich, Saint Louis, MO, USA) and 2 mM L-glutamine (Cat. No. 25030, Gibco BRL Co, Grand Island, NY, USA). Cells were seeded at 10 × 10^5 cells per well in 96-well plates and incubated for 24 h at 37 °C in a humidified atmosphere containing 5% CO2.
(§1) Test compounds were dissolved in phenol red-free DMEM (Cat. No. 12-917 F, Lonza, Massachusetts, USA) and added to the cells as a pretreatment for 30 min. The cells were then exposed to LPS (1 µg/mL, Cat. No. L-2762, Sigma-Aldrich, Saint Louis, MO, USA) for 20 h. Nitric oxide levels were quantified using the Griess reagent, which consists of a 1:1 (v/v) mixture of 1% sulfanilamide (Cat.No. A13001, Alfa Aesar, Massachusetts, USA) in H3PO4 and N-(1-naphthyl)ethylenediamine dihydrochloride (Cat. No. 102397, MP Biomedicals, USA). A standard curve was generated using sodium nitrite (Cat. No. 44227, Alfa Aesar, Massachusetts, USA), and IC50 values were calculated using Table Curve 2D software (Version 4.07, AISN Software Inc., Richmond, VA, USA). Also, a sulforhodamine B (SRB, Cat. No. S9012, Sigma-Aldrich, Saint Louis, MO, USA) assay was performed to assess the cytotoxic effects of the test compounds on RAW 264.7 cells.

The test system of the next series is RAW 264.7 cells. Nature of the series: SRB cytotoxicity / survival of RAW 264.7 cells in the nitrite assay. The class given is cell-based, mouse. To be noted: for Nitrite assay % surv.: % survival at a concentration of 50 μM, RAW 264.7; for cytotoxicity in NO assay: RAW 264.7 cells. Here is the method: as §1
Series [3] concerns human embryonic kidney 293 cells (HEK293). The series is described as follows: Cell survival in the NF-κB assay. The format is cell-based. To be noted: human, 6 h, 50 µM.
Where [4] appears, read: RAW264.7, read-out: Nitrite assay IC50.

Where a name gives a salt, the structure may show the parent alone. Read-outs that look alike come from different tables or passages of the source.

Usually IC50 stands for the concentration at which inhibition is half-maximal. For `Cc1ccc(S(=O)(=O)N[C@@H](Cc2ccccc2)C(=O)CCl)cc1` [TPCK, Nα-tosyl-L-phenylalanine chloromethyl ketone, reference compound], the IC50 in series [1] was found to be 7080 ± 1720 nM.
With `CC(=O)O[C@@H]1CC2C(CC[C@]3(C)[C@](O)([C@@](C)(O)C4CC(C)=C(C)C(=O)O4)CC[C@@]23O)[C@@]2(C)C(=O)C=CC=C12` (stereo partly drawn) [Compound 5a, withaperuvin C acetate], the figures for the inhibition at 50 µM in series [2] and in series [1] (Homo sapiens) were 99 ± 0.3% and 78.3 ± 3%, respectively. Besides, the 50% inhibitory concentration (IC50) in series [2] (setting [4]) was 1800 ± 100 nM; in series [1] (Homo sapiens) it was 2400 ± 1700 nM. For the same compound, in the series with RAW 264.7 cells, the “Nitrite assay % surv.” value was 98.8 ± 1.4%. The “cytotoxicity in NO assay” value in the series on RAW 264.7 cells is “without significant cytotoxicity”. Also, the “NF-κB assay % surv.” value in series [3] was 47.0 ± 6.0%.
Turning to `CC(=O)OC1C=CC(=O)C2(C)C3CCC4(C)C(O)(CCC4(O)C(C)(O)C4CC(C)=C(C)C(=O)O4)C3CC(Cl)C12O` (stereo not drawn) [Compound 2a], the inhibition at 50 µM in series [2] came out at 99.2 ± 2.6%. Moreover, in series [2] (setting [4]), the IC50 was found to be 8700 ± 600 nM. Moreover, in the series on RAW 264.7 cells, the “Nitrite assay % surv.” value came out at 93.2 ± 2.3% and the “cytotoxicity in NO assay” value is reported as “without significant cytotoxicity”. Besides, in series [3], the “NF-κB assay % surv.” value was 12.3 ± 7.58%. In series [1] (Homo sapiens), the inhibition at 50 µM was 92.2 ± 0.6% and the IC50 was found to be 1100 ± 420 nM.
For the compound `CC1=C(C)C(=O)OC([C@](C)(O)[C@]2(O)CC[C@@]3(O)C4C[C@@H](O)C5=CC=CC(=O)[C@]5(C)C4CC[C@]23C)C1` (stereo partly drawn) [Compound 5, withaperuvin C], the inhibition at 50 µM in series [2] was determined as 99.2 ± 0.7%. For the same compound, the 50% inhibitory concentration (IC50) in series [2] (setting [4]) turned out to be 2400 ± 200 nM. Also, in the series with RAW 264.7 cells, the “Nitrite assay % surv.” value was 79.3 ± 1.2% and the “cytotoxicity in NO assay” value was “without significant cytotoxicity”. In addition, the “NF-κB assay % surv.” value in series [3] was found to be 100.0 ± 8.0%. In series [1] (Homo sapiens), the inhibition at 50 µM was 85 ± 4.4% and the half-inhibitory concentration (IC50) was 5600 ± 2100 nM.
Regarding `CC(=O)OC1C[C@H](O)CC2=CCC3C4CCC([C@@](C)(O)[C@H](O)C[C@@H]5COC(=O)[C@@]5(C)O)[C@@]4(C)CCC3[C@]21C` (stereo partly drawn) [Compound 6, perulactone C], the inhibition at 50 µM in series [2] came to 84.2 ± 3.7%. The 50% inhibitory concentration (IC50) in series [2] (setting [4]) turned out to be 11800 ± 300 nM. Moreover, in the series on RAW 264.7 cells, the “Nitrite assay % surv.” value is reported as 95.3 ± 11.0% and the “cytotoxicity in NO assay” value was “without significant cytotoxicity”. For the same compound, the “NF-κB assay % surv.” value in series [3] came out at 36.5 ± 1.9%. Also, in series [1] (Homo sapiens), the inhibition at 50 µM was determined as 56.1 ± 3.9% and the IC50 was 1100 ± 480 nM.
Consider `CC1=C(CO)CC(C(C)(O)C2(O)CCC3(O)C4CC(O)C5(O)CC=CC(=O)C5(C)C4CCC32C)OC1=O` (stereo not drawn) [Compound 7, phyperunolide B], for which the values for the inhibition at 50 µM in series [2] and in series [1] (Homo sapiens) were 7.4 ± 3.5% and 41 ± 6.9%, respectively. Further, the “Nitrite assay % surv.” value in the series on RAW 264.7 cells worked out at 100.0 ± 14.1%. Besides, in series [3], the “NF-κB assay % surv.” value came out at 81.6 ± 8.4%.
With `[H]/N=C(/NC)NCCC[C@H](N)C(=O)O` [L-NMMA, L-N^G-Monomethyl arginine citrate, reference compound], the 50% inhibitory concentration (IC50) in series [2] (RAW264.7, LPS-activated RAW 264.7 cells, read-out: Nitrite assay IC50) stood at 23500 ± 3400 nM.
`CC1=C(C)C(=O)OC(C(C)(O)C2(O)CCC3(O)C4CC(Cl)C5(O)C(O)C=CC(=O)C5(C)C4CCC32C)C1` [Compound 2, (20S,22R)-4β,5β,14α,17β,20α-pentahydroxy-6α-chloro-1-oxowitha-2,24-diene-22,26-olide]: the inhibition at 50 µM in series [2] amounted to 99.4 ± 0.1%. For the same compound, the IC50 in series [2] (setting [4]) turned out to be 3300 ± 300 nM. In the series with RAW 264.7 cells, the “Nitrite assay % surv.” value is 96.1 ± 3.2% and the “cytotoxicity in NO assay” value is on record as “without significant cytotoxicity”. Further, in series [3], the “NF-κB assay % surv.” value came out at 100.0 ± 14.4%. For the same compound, in series [1] (Homo sapiens), the inhibition at 50 µM was found to be 97.4 ± 1.1% and the half-inhibitory concentration (IC50) worked out at 60 ± 20 nM.
`CC1=C(C)C(=O)OC(C(C)(O)C2(O)CCC3(O)C4CC(O)C5(O)C(O)C(O)CC(=O)C5(C)C4CCC32C)C1` [Compound 1, (20S,22R)-3α,4β,5α,6β,14α,17β,20β-heptahydroxy-1-oxowitha-24-ene-26,22-olide]: the inhibition at 50 µM in series [2] was 82.4 ± 1.1%; in series [1] (Homo sapiens), 93.4 ± 1.2%. For the same compound, the IC50 in series [2] (setting [4]) stood at 13300 ± 200 nM; in series [1] (Homo sapiens), 10 ± 10 nM. Also, in the series with RAW 264.7 cells, the “Nitrite assay % surv.” value is reported as 100 ± 1.1%. In addition, the “cytotoxicity in NO assay” value with RAW 264.7 cells is on record as “without significant cytotoxicity”. The “NF-κB assay % surv.” value in series [3] stood at 100 ± 24.5%.
